Measured values from publication PMC8846325, “A Photoactivable Natural Product with Broad Antiviral Activity against Enveloped Viruses, Including Highly Pathogenic Coronaviruses” (Antimicrobial Agents and Chemotherapy, 2022).

Experiments:
[1] = system: yellow fever virus (YFV); format: cell-based; conditions: 1 and 2.5 μM, light 30 min prior to inoculation
[2] = system: HCoV-229E; assay: HCoV-229E-Luc infection inhibition luciferase assay; format: cell-based; conditions: for IC50: Human coronavirus 229E
[3] = MTS cell toxicity assay, Vero-81 cells; format: cell-based; conditions: African green monkey, 24 h, 10 min light exposure after 1 h, read-out: 50% cytotoxic concentration (CC50)
Protocol: (§1) A total of 6 × 10^4 Huh-7, Vero-E6, and Vero-81 cells were seeded in 96-well plates and incubated for 16 h at 37°C in a 5% CO2 incubator. The cells were then treated with increasing concentrations of the compound of interest. One hour after inoculation, cells were taken out of the incubator to be exposed to the white light of a biosafety cabinet (BSC) for 10 min, after which cells were further incubated in the dark at 37°C and 5% CO2 for 23 h. The BSC’s light source lamp consists of one fluorescent tube of 36 W, 3,350 lumen, white light. An MTS [3-(4,5-dimethylthiazol-2-yl)-5-(3-carboxymethoxyphenyl)-2-(4-sulfophenyl)-2H-tetrazolium]-based viability assay (Cell Titer 96 aqueous nonradioactive cell proliferation assay; Promega) was performed as recommended by the manufacturer. The absorbance of formazan at 490 nm was detected using a plate reader (ELX 808 Bio-Tek Instruments Inc.). Each measure was performed in triplicate, and each experiment was repeated at least 3 times.
(§2) 6×104 Huh-7, Vero-E6 and Vero-81 cells were seeded in 96-well plates and incubated for 16 h at 37 °C 5% CO2 incubator. The cells were then treated with increasing concentrations of the compound of interest. […] The absorbance of formazan at 490 nm was detected using a plate reader (ELX 808 Bio-Tek […]

[4] = system: Vero-81 cells; assay: MTS cell toxicity assay, Vero-81 cells; format: cell-based; conditions: 24 h in incubator without light exposure
Protocol: as §1, §2

[5] = system: SARS-CoV-2; format: cell-based
[6] = system: HCoV-229E; assay: HCoV-229E infectious titers (TCID50); format: cell-based
[7] = MTS cell toxicity assay, Huh-7 cells; format: cell-based; conditions: human, Huh-7 cells, 24 h
Protocol: as §1
(§3) 6×104 Huh-7, Vero-E6 and Vero-81 cells were seeded in 96-well plates and incubated for 16 h at 37 °C 5% CO2 incubator. The cells were then treated with increasing concentrations of the compound of interest. One hour after inoculation, cells were either left in the incubator (dark condition) or taken out to be exposed to the white light of the biosafety cabinet (BSC) for 10 min (light condition), after which cells were further incubated in the dark at 37 °C 5% CO2 for 23 h. BSC’s light source lamp consists of one fluorescent tube of 36W, 3350 lumen white light. An MTS [3-(4,5-dimethylthiazol-2-yl)-5-(3-carboxymethoxyphenyl)-2-(4-sulfophenyl)- 2H-tetrazolium]-based viability assay (Cell Titer 96 Aqueous non-radioactive cell proliferation assay, Promega) was performed as recommended by the manufacturer. The absorbance of formazan at 490 nm was detected using a plate reader (ELX 808 Bio-Tek […]
(§4) Instruments Inc). […]

[8] = system: Huh-7 cells; assay: MTS cell toxicity assay, Huh-7 cells; format: cell-based; conditions: Huh-7 cells, 24 h in incubator without light exposure
Protocol: as §1, §3, §4

[9] = system: coxsackievirus (CVB4); format: cell-based, Coxsackievirus B4
[10] = system: Sindbis virus (SINV); format: cell-based
[11] = system: hepatitis C virus; format: cell-based, HCV
[12] = system: SARS-CoV-2; format: cell-based; remark: listed apart in the source
[13] = system: HCoV-229E; assay: White light exposure kinetics; format: cell-based
[14] = system: HCoV-229E; assay: Trypsin-induced virus-cell fusion assay; format: cell-based; conditions: Huh-7 cells, NH4Cl, 0.5 and 1 μM
[15] = system: pseudotyped viral particles with envelope proteins of VSV, HCV, SARS-CoV-2, and MERS-CoV; format: cell-based
[16] = system: HCoV-229E; assay: Attachment assay (bound virions by qRT-PCR); format: cell-based; conditions: Huh-7-TMPRSS2 cells, 4°C 1 h, 4.1 and 8.2 μM
[17] = system: MERS-CoV; assay: microbe, parasite or virus in culture; format: cell-based
[18] = system: Vero-E6 cells; assay: MTS cell toxicity assay, Vero-E6 cells; format: cell-based; conditions: 24 h in incubator without light exposure
Protocol: as §1, §2

[19] = MTS cell toxicity assay, Vero-E6 cells; format: cell-based; conditions: African green monkey, 24 h, 10 min light exposure after 1 h, read-out: 50% cytotoxic concentration (CC50)
Protocol: as §1, §2

[20] = system: MERS-CoV; format: cell-based; conditions: Mucilair cells, 2.5 μM, 72 h postinoculation
[21] = biological target: SARS-CoV-2 spike protein (Severe acute respiratory syndrome coronavirus 2, UniProt P0DTC2); format: cell-based
[22] = system: HCoV-229E; assay: Time-of-addition assay, HCoV-229E-Luc; format: cell-based
[23] = system: Mucilair primary human bronchial epithelial cells; assay: Mucilair toxicity assays (LDH secretion, transepithelial electrical resistance); conditions: 0.25 and 2.5 μM, up to 72 h
[24] = system: SARS-CoV-2; assay: microbe, parasite or virus in culture; format: cell-based
[25] = Huh-7-TMPRSS2 cells, Pba 2 μM, BSC light

With `C=Cc1c(C)c2cc3nc(c4c5[nH]c(cc6nc(cc1[nH]2)C(C)=C6CC)c(C)c5C(=O)[C@@H]4C(=O)OC)[C@@H](CCC(=O)O)[C@@H]3C` [Pba, pheophorbide a] the “antiviral activity on YFV (enveloped)” value [1] was “clear antiviral effect”, the “activity against HCoV-229E-Luc, extracts and fractions” value ([2]; Huh-7 cells, 25 μg/ml, 7 h postinoculation) was “the most active” and the “antiviral activity in the dark” value ([2]; Huh-7 cells, dark, 10 μM) was “antiviral activity was observed”. The “antiviral activity in presence or absence of TMPRSS2” value ([2]; Huh-7 versus Huh-7-TMPRSS2 cells) was “No difference in antiviral activity”, the IC50 ([2]; Huh-7) was 540 nM and the IC50 ([2]; Huh-7, 7 h, read-out: 50% inhibitory concentration (IC50) against HCoV-229E-Luc) was 510 nM. For the same compound, the “antiviral activity after pretreatment of virus versus no pretreatment” value ([2]; virus preincubated 30 min with 2 μM, diluted to 0.2 μM for inoculation, compared with 0.2 μM directly, Huh-7 cells) was “much stronger”, the CC50 at 24 h [3] was 5500 ± 2000 nM and the “concentrations at which no toxicity was exhibited” value [4] was “up to 120 μM”. The “infectivity, compound added more than 2 h after inoculation” value [5] was “normal levels of infectivity”, the “inhibition of infection, compound added before inoculation (pretreatment of the cells)” value [5] was “no inhibition of infection” and the “inhibition of infection, compound present during inoculation” value [5] was “strong inhibition of infection”. The “selectivity index (SI), HCoV-229E” value ([6]; CC50 Huh-7 / IC50 infectious titers) was 44, the IC50 ([6]; Human coronavirus 229E, Huh-7, 10 min, read-out: IC50, HCoV-229E infectious titers) was 100 nM and the CC50 at 24 h ([7]; 10 min light exposure after 1 h, read-out: 50% cytotoxic concentration (CC50)) was 4.4 ± 1.2 µM. The CC50 at 24 h ([7]; light exposure, read-out: CC50 (μM) 24 h) was 6.08 µM, the “concentrations at which no toxicity was exhibited” value [8] was “up to 120 μM” and the “antiviral activity on CVB4 (nonenveloped)” value [9] was “not active”. For the same compound, the “antiviral activity on SINV (enveloped)” value [10] was “clear antiviral effect”, the “antiviral activity on HCV (enveloped)” value [11] was “clear antiviral effect” and the “decrease of viral titers, SARS-CoV-2” value [12] was “more than 1 log10”. For the same compound, the “viral RNA levels of SARS-CoV-2” value [12] was “significantly decreased”, the “antiviral effect at inactive concentration with long light exposure” value ([13]; 0.02 μM, 80 min light exposure) was “no antiviral effect” and the “inhibitory effect with longer light exposure times” value ([13]; 0.02, 0.2, 2 μM, light 5 to 80 min) was “increased inhibitory effect”. For the same compound, the “infection under trypsin-mediated fusion conditions” value [14] was “strongly inhibited infection levels”, the pseudoparticle infection [15] was “inhibited pseudoparticle infection regardless of the nature of the viral envelope protein but only under light conditions” and the “virus attachment (bound HCoV-229E RNA levels)” value [16] was “only a slight and nonsignificant decrease in RNA levels”. For the same compound, the “selectivity index, MERS-CoV” value [17] was 24, the IC50 ([17]; Middle East respiratory syndrome-related coronavirus, Huh-7, read-out: IC50, MERS-CoV infectious titers) was 180 nM and the “concentrations at which no toxicity was exhibited” value [18] was “up to 120 μM”. The CC50 at 24 h [19] was 5800 ± 1900 nM, the “decrease of viral titers, MERS-CoV” value [20] was “more than 1 log10” and the “viral RNA levels of MERS-CoV” value [20] was “significantly decreased”. The “spike-induced cell-cell fusion (syncytium formation)” value [21] was “cannot prevent cell-cell fusion”, the “infectivity, compound added more than 2 h after inoculation” value [22] was “normal levels of infectivity” and the “inhibition of infection, compound added before inoculation (pretreatment of the cells)” value [22, 25] was “no inhibition of infection”. For the same compound, the “inhibition of infection, compound present during inoculation” value [22, 25] was “strong inhibition of infection”, the “toxicity (LDH secretion and transepithelial electrical resistance)” value [23] was “No toxicity was observed” and the “selectivity index, SARS-CoV-2” value [24] was 32. The IC50 ([24]; Severe acute respiratory syndrome coronavirus 2, Vero C1008, read-out: IC50, SARS-CoV-2 infectious titers) was 180 nM.
